Experimental data published in ChEMBL document CHEMBL4476871, “SULFAMIDE AND SULFAMATE INHIBITORS OF hHint1” (2018).

How the values were obtained:
[1] = target: T1, Adenosine 5'-monophosphoramidase HINT1 (Homo sapiens, UniProt P49773); assay: Binding affinity to full-length human N-terminal His6-tagged Hint1 expressed in Escherichia coli Rosetta 2 pLysS cells by isothermal titration calorimetry
[2] = Solubility of the compound in DMSO; assay type: physicochemical
[3] = Aqueous solubility of the compound; assay type: physicochemical; settings: buffer
[4] = Solubility of the compound in water; assay type: physicochemical; settings: buffer
Mus musculus [5] = assay: Suppression of morphine-induced analgesic tolerance in ICR mouse model of spared nerve injury-induced neuropathic pain assessed as reduction in mechanical hypersensitivity administered intrathecally for 3 days prior to morphine challenge on day 4 by Von Frey test; assay type: functional; settings: central
Mus musculus [6] = assay: Effect on spared nerve injury-induced ICR mouse model of neuropathic pain administered intrathecally for 3 days by Von Frey test; assay type: functional; settings: central, 72 h
[7] = target: T1, Adenosine 5'-monophosphoramidase HINT1; assay: Inhibition of human N-terminal His6-tagged Hint1 expressed in Escherichia coli Rosetta 2 pLysS cells by fluorescence assay
Mus musculus [8] = assay: Suppression of morphine-induced analgesic tolerance in ICR mouse model of spared nerve injury-induced neuropathic pain assessed as reduction in mechanical hypersensitivity administered intrathecally for 3 days prior to morphine challenge on day 4 by Von Frey test relative to control; assay type: functional
Mus musculus [9] = assay: Effect on spared nerve injury-induced ICR mouse model of neuropathic pain administered intrathecally for 3 days by Von Frey test relative to control; assay type: functional

T1 sequence (P49773 whole entry): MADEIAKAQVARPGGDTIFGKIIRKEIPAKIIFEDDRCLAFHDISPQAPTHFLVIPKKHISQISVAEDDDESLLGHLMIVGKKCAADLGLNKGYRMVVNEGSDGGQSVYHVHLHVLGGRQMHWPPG

Kd [1] | solubility [2] | Structure (SMILES) | other results
1.01 µM | Soluble | Nc1nc(N)c2ncn([C@@H]3O[C@H](COC(=O)Nc4ccccc4)[C@@H](O)[C@H]3O)c2n1 | 
67 µM |  | Nc1nc2c(ncn2[C@@H]2O[C@H](COP(=O)(O)O)[C@@H](O)[C@H]2O)c(=O)[nH]1 | 
 |  | Nc1nc2c(ncn2[C@@H]2O[C@H](CNS(=O)(=O)NC(=O)CCc3c[nH]c4ccccc34)[C@@H](O)[C@H]2O)c(=O)[nH]1 | solubility [3]: Soluble
 |  | Nc1nc2c(ncn2C2OC(COS(=O)(=O)NC(=O)CCc3c[nH]c4ccccc34)C(O)C2O)c(=O)[nH]1 (single isomer, unassigned) | solubility [3]: Soluble
 |  | Nc1nc2c(ncn2[C@@H]2O[C@H](CSP(=O)(O)NCCc3c[nH]c4ccccc34)[C@@H](O)[C@H]2O)c(=O)[nH]1 | solubility [4]: Soluble
5.2 µM |  | Nc1nc2c([C@@H]3O[C@H](COS(=O)(=O)NC(=O)CCc4c[nH]c5ccccc45)[C@@H](O)[C@H]3O)scc2c(=O)[nH]1 | solubility [4]: Soluble
2.45 µM | Soluble | CCNC(=O)OC[C@H]1O[C@@H](n2cnc3c(N)nc(N)nc32)[C@H](O)[C@@H]1O | 
 |  | Nc1nc2c(ncn2[C@@H]2O[C@H](COP(=O)(O)NCCc3c[nH]c4ccccc34)[C@@H](O)[C@H]2O)c(=O)[nH]1 | solubility [3]: Soluble
 |  | O=C(CCc1c[nH]c2ccccc12)NS(=O)(=O)OC[C@H]1O[C@@H](n2cnc3c2ncn2ccnc32)[C@@H](O)C1O (stereo partly specified) | ED50 (Mus musculus [5]): 4.6 mg/kg; ED50 (Mus musculus [6]): 3.6 mg/kg; solubility [3]: Soluble
3.43 µM | Soluble | Nc1nc2c(ncn2[C@@H]2O[C@H](COC(=O)NCCc3c[nH]cn3)[C@@H](O)[C@H]2O)c(=O)[nH]1 | 
 |  | Nc1ncnc2c1ncn2[C@@H]1O[C@H](CNS(=O)(=O)NC(=O)CCCC[C@@H]2SC[C@@H]3NC(=O)N[C@@H]32)[C@@H](O)[C@H]1O | IC50 [7]: 25.5 µM
8.09 µM | Insoluble | Nc1nc2c(ncn2[C@@H]2O[C@H](COC(=O)NCc3ccccc3)[C@@H](O)[C@H]2O)c(=O)[nH]1 | 
 | Soluble | Nc1nc2c(ncn2[C@@H]2O[C@H](COC(=O)NCCc3c[nH]c4ccccc34)[C@@H](O)[C@H]2O)c(=O)[nH]1 | ED50 (Mus musculus [5]): 2.6 mg/kg; ED50 (Mus musculus [6]): 2.3 mg/kg; fold change (FC) (Mus musculus [8]): 0.8; fold change (FC) (Mus musculus [9]): 0.7
47.2 µM | Soluble | CCN(CC)C(=O)OC[C@H]1O[C@@H](n2cnc3c(=O)[nH]c(N)nc32)[C@H](O)[C@@H]1O | 
